The subject of one data set is HeLa cells. Nature of the data set: 14C-leucine protein incorporation assay in HeLa cells. The format is cell-based, human. The note with it: for effect on incorporation of 14C-leucine into precipitated proteins: 30 min labeling, CHX 10 ug/ml. The protocol: Since NV-5138 is an amino acid, we performed two different experiments to rule out any potential liabilities that could arise from the incorporation of NV-5138 into proteins. We first determined whether NV-5138 substitutes for any branched-chain amino acid or methionine into newly synthesized proteins using liquid chromatography followed by tandem mass spectroscopy (LC-MS/MS). NV-5138 (100 µM) or vehicle was incubated with serum and leucine-starved 293T cells for 6 hours followed by proteomic analysis by mass spectrometry.
After incubation, cells were harvested and lysed in Tris/HCl 10 mM pH 7.4 plus 1% NP40. Lysate were mixed with water and 20% trichloroacetic acid (1:1:2) and incubated on ice for 2 h to precipitate the protein. Proteins were collected by centrifugation, solubilized in NaOH, placed in scintillation fluid and read on a Wallac Microbeta Trilux 2450 with a 2-min count. Scintillation values were normalized as the percentage of the counts from the DMSO-treated wells.

For another data set, the target named is T1, Sestrin3 (Homo sapiens, UniProt P58005).
T1 construct: endogenous in cells; host or cells: HEK-293T
T1 sequence (P58005 1-492): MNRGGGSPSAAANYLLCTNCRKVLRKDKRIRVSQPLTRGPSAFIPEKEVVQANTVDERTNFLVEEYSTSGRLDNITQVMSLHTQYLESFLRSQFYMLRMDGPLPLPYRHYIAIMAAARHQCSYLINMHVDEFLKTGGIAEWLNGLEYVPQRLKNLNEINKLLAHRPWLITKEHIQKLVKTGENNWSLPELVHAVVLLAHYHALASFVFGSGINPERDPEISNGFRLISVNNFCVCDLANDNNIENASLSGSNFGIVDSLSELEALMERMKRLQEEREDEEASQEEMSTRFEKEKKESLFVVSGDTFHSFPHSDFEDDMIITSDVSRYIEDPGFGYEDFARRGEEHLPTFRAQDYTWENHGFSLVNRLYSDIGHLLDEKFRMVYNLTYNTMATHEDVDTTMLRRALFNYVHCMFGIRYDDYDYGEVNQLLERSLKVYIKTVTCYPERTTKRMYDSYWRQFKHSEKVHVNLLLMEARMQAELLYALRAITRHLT
The data set is described as follows: Cellular thermal shift assay (CETSA), intracellular Sestrin3 in HEK-293T cells. The format is cell-based. Conditions: 300 µM, 30 min, leucine-starved HEK293T cells. The protocol:
(§1) Expression of flag-WDR24 allows for immunoprecipitation of the Sestrin2/GATOR2 complex from amino acid-starved cells with an anti-flag antibody. […] Finally, to determine whether Sestrins and the GATOR pathway are required for NV-5138 activity, HEK-293T cells null for all three Sestrin isoforms or the GATOR1 component Nprl3 were obtained.
(§2) CETSA was performed as previously described. […] Cells were then collected, centrifuged for 3 min at 300 g at room-temperature (RT), washed with PBS, centrifuged again, and finally resuspended in 1 ml of RT PBS containing EDTA-free protease-inhibitor tablets (Roche). 100 µl of each cell suspension was heated at the noted temperature for 3 min, samples were then placed on the bench at RT for 3 min before being flash-frozen in liquid nitrogen. To lyse the cells, samples were put through two cycles of freeze-thawing followed by centrifugation at 20,000 g for 20 min at 4 °C. 80 µl of the resulting supernatant was denatured and, resolved by SDS-PAGE. Membranes were imaged using the LI-COR imaging system. Antibodies used are listed in Supplementary Information.

For another data set, the target named is T2, BCAT2 (Homo sapiens, UniProt O15382).
T2 construct: purchased OriGene TP300625
T2 sequence (O15382 28-392): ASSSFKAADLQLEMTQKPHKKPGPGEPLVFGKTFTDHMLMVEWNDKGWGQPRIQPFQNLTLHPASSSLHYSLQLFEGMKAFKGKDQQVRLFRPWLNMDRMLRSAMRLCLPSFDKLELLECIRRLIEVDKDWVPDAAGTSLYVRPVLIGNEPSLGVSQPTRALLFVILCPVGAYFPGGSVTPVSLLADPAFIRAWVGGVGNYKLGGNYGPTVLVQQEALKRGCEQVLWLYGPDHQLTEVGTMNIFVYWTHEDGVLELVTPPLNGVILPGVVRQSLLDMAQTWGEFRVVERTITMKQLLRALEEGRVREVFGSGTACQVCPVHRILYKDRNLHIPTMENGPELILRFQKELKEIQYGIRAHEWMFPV
Nature of the data set: BCAT enzymatic assay (substrate test), BCAT2. The format is biochemical. Conditions: NADH oxidation at 340 nm; tested up to 1.5 mM. As to the method:
BCAT exists in two isoforms, mitochondrial BCAT2 which is ubiquitously expressed, and cytosolic BCAT1, which is predominantly expressed in embryonic tissues and the adult brain. To determine whether NV-5138 is a substrate for BCAT isoforms, we established an in vitro enzymatic assay using purified BCAT1 and BCAT2 and performed the assay in the forward direction as described. […] The disappearance of absorbance at 340 nm due to NADH oxidation is measured continuously over time.
The assay buffer was dispensed into a 96-well plate and brought up to 37 °C for 10 min before adding BCAT1 or BCAT2 (72 ng) in 0.1 M potassium phosphate buffer. Absorbance at 340 nm was then read every minute for 30 min at RT using an Envision plate reader. Source of each reagents used can be found in Supplementary Information.

The target in the next data set is T3, Sestrin1 (Homo sapiens, UniProt Q9Y6P5).
T3 sequence (Q9Y6P5 67-492 limits assumed): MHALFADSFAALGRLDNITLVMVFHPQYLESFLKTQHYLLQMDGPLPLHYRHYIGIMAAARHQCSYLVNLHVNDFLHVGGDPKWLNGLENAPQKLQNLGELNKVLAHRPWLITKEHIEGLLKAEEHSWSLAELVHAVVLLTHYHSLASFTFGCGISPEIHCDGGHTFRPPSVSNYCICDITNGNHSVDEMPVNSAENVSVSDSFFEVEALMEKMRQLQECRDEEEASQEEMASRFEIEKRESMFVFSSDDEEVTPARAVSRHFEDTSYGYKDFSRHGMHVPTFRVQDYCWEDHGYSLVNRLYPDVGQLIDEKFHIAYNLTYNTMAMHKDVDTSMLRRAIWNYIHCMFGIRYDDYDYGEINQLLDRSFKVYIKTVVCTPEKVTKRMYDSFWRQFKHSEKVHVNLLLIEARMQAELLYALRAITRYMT
The data set is described as follows: Cellular thermal shift assay (CETSA), intracellular Sestrin1 in HEK-293T cells. The format is cell-based. The note with it: 30 min, leucine-starved HEK293T cells, read-out: increase of melting temperature of intracellular Sestrin1. As to the method: as §1, §2

Entries after “also recorded” stand apart in the source; their conditions may differ.

As to `CC(C)C[C@H](N)C(=O)O` [Leucine, L-leucine, reference compound], in the data set on HeLa cells, the “effect on incorporation of 14C-leucine into precipitated proteins” value is “blocked incorporation”. For the same compound, the “change of melting temperature of intracellular Sestrin3” value on Sestrin3 is given as “neither NV-5138 nor leucine changed the melting temperature”. For the same compound, the “transamination by BCAT2” value on BCAT2 is “transaminated by BCAT1 and BCAT2”. In addition, the ΔTm at 300 µM on Sestrin1 was about 2 °C.

Consider `CC(C)(C[C@H](N)C(=O)O)C(F)F` [NV-5138, (S)-2-amino-5,5-difluoro-4,4-dimethylpentanoic acid], for which the “effect on incorporation of 14C-leucine into precipitated proteins” value in the data set with HeLa cells is listed as “did not show any competition”. Also, in the data set with HeLa cells (high doses), the “effect on 14C-leucine incorporation at high doses” value is recorded as “appeared to increase”. The “change of melting temperature of intracellular Sestrin3” value at Sestrin3 was “neither NV-5138 nor leucine changed the melting temperature; also recorded: does not impact the melting temperature”. Also, the “transamination by BCAT2” value on BCAT2 is “no decrease in absorption at 340 nm; also recorded: did not observe any transamination”. For the same compound, at Sestrin1, the ΔTm at 300 µM is about 2 °C.
